Literature values in patent US20080221127A1, “PPAR ACTIVE COMPOUNDS” (Plexxikon Inc, priority 2007, published 2008).

Columns and labels:
PPARδ = molecular target: T1, PPARδ (Homo sapiens, UniProt Q03181)
T1 sequence (Q03181 1-441): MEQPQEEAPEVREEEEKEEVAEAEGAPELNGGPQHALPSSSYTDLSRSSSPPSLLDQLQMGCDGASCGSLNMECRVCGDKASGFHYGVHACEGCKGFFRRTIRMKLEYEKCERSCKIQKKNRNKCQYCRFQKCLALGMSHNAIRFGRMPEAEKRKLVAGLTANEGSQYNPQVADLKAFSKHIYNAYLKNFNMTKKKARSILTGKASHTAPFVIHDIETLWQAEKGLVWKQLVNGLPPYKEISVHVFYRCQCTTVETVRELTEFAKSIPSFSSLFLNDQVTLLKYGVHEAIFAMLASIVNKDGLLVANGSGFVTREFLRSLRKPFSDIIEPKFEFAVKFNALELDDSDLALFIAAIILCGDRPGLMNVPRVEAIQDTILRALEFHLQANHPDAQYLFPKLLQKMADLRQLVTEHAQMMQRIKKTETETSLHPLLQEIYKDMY

murine PPARα = molecular target: T2, murine PPARα (Mus musculus, UniProt P23204)
T2 sequence (P23204 1-468): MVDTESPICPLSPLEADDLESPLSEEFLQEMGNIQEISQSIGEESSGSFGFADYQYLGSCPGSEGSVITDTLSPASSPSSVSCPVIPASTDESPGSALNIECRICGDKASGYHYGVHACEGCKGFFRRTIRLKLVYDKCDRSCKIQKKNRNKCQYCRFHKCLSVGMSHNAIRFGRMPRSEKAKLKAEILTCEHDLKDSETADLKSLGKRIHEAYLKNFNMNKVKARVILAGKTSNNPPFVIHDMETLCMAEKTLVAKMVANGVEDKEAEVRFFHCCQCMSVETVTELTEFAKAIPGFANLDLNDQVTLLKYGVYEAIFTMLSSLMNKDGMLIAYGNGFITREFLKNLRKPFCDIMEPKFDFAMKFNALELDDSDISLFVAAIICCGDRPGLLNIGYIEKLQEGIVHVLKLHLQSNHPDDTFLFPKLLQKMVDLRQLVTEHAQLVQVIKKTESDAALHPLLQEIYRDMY

agonist selectivity for PPARδ over PPARγ (PPARδ): approximately 30 fold | activity on murine PPARα (murine PPARα): inactive
SMILES: CCCc1c(OCCCOc2ccc(OCC(=O)O)cc2)ccc(C(C)=O)c1O [L-165041]
